US20240400572A1, “COMPOUNDS AND METHODS FOR TREATING CANCERS THAT ARE MGMT DEFICIENT REGARDLESS OF MMR STATUS” (Yale University, priority 2021, published 2024)

Experiments:
[1] = system: linearized pUC19 plasmid DNA; experiment: Melting temperature assay; format: biochemical; conditions: 100 or 500 μM for 3 h
Description: Melting Temperature Assay. Linearized pUC19 DNA (750 ng), prepared as described above, was incubated with the indicated concentration of either MMS or KL-50 (4a) adjusted in a final volume of 18 μL in 100 mM Tris buffer (pH 7.4) for 3 h. Drug stock concentrations were made in DMSO such that each reaction contained a fixed 5% DMSO concentration. Afterwards, 1 μL each of 20× SYBR Green dye (Invitrogen) and 20× ROX reference dye (Invitrogen) was added and melting temperature analysis was run on a StepOnePlus RT PCR System (Applied Biosciences) to generate melting temperature curves.

[2] = system: LN229 MGMT− cells with shRNA targeting MSH6, MLH1, PMS2, or MSH3; experiment: Short-term cell viability assay in cells lacking other MMR proteins; format: cell-based, human
Text: FIGS. ZS3A-ZS3J. KL-50 (4a) is effective in TMZ (1a)-resistant cells lacking other MMR proteins. (FIG. ZS3A) Western blotting performed in LN229 MGMT+/− cells with stable expression of shRNA targeting MSH6, MLH1, PMS2, or MSH3 to confirm depletion of the shRNA targets. In shMSH6 cells, there is reduced expression of MSH2, and in shMLH1 cells, there is loss of PMS2, due to destabilization in the setting of loss of their heterodimeric partners. GAPDH serves as loading control. (FIG. ZS3B) (Table S1.) IC50 values derived from short-term viability assays in LN229 MGMT+/− cells lines, +/−shRNA, treated with TMZ (1a) or KL-50 (4a). aMGMT TI (therapeutic index)=IC50 (MGMT+/MMR+) divided by IC50 (MGMT−/MMR+). bMMR RI (resistance index)=IC50 (MGMT−/MMR−) divided by IC50 (MGMT−/MMR+). (FIG. ZS3C) Short-term viability assay curves for TMZ (1a) in LN229 MGMT+/−, MMR+/shMSH6 cells. (FIG. ZS3D) Short-term viability assay curves for KL-50 (4a) in LN229 MGMT+/−, MMR+/shMSH6 cells. (FIG. ZS3E) Short-term viability assay curves for TMZ (1a) in LN229 MGMT+/−, MMR+/shMLH1 cells. (FIG. ZS3F) Short-term viability assay curves for KL-50 (4a) in LN229 MGMT+/−, MMR+/shMLH1 cells. (FIG. ZS3G) Short-term viability assay curves for TMZ (1a) in LN229 MGMT+/−, MMR+/shPMS2 cells. […]
Short-term Cell Viability Assay. […] Cells were imaged on a Cytation 3 imaging reader (BioTek) and quantified using CellProfiler software.

[3] = system: LN229 MGMT− MMR− cells; experiment: Anticancer activity towards LN229 human brain glioblastoma cells (nuclei count after 120 hours); format: cell-based; conditions: LN-229, LN229 quad cells, 200 μM to 0.1 uM
Description: (§1) Exemplary compounds were evaluated for activity against LN229 human brain glioblastoma cells. Experimental procedures and results are provided elsewhere herein.
(§2) LN229 quad cells were maintained in Dulbecco's Modified Eagle Medium (DMEM) supplemented with 10% fetal bovine serum. Cells were plated into sterile black with glass bottom 384-well plates (Cellvis) at a concentration of 1,000 cells/well (20 μL total volume) using a MultiDrop (Thermo Fisher). Then, assay plates were centrifuged at 300 rpm for 2 seconds and incubated overnight in a 37° C. 5% CO2 incubator. Compounds were prepared as 100 mM stocks in DMSO and stored protected from light at −20′C until use. Prior to compound addition, the stock solutions of compound were diluted two-fold serially in DMSO from 100 mM down to 0.05 mM in a 384-well Source plate. Vehicle control wells containing DMSO and positive control wells containing 10 mM bortezomib were also added to the Source plate. An aliquot in the amount of 40 nL of compound stock solution or DMSO vehicle was transferred from the source plate to the cell assay plate using an Echo Acoustic dispense (Beckman). Three replicate dilution curves of each compound were run on each assay plate. An aliquot in the amount of 120 nL of a 10 mM bortezomib solution was transferred to the positive control wells resulting in a final concentration of 60 μM. The final concentration of compounds ranged from 200 μM to 0.1 uM (12-point, 2-fold dilution dose response curve), and the final DMSO concentration was 0.2%.
(§3) Assay plates were centrifuged at 500 rpm for 2 seconds and incubated for 120 hours at 37° C. in a humidified 5% CO2 incubator. Following incubation, cells were fixed with 4% paraformaldehyde and stained with DAPI for nuclei visualization. The images were acquired on the InCell 2200 high content imager (GE, now […]), and quantified using InCell Analyzer image analysis software. Z prime factor, signal-to-background and coefficient of variation were calculated for each assays plate using mean and standard deviation values of the negative (vehicle) and positive (bortezomib) control wells to ensure assay robustness. Raw cell count data for test compounds was normalized to percent viability relative to the DMSO vehicle control. Data was plotted in GraphPad Prism using a variable slope 4-parameter fit.

[4] = system: LN229 MGMT+ MMR+ cells; experiment: as above; format: cell-based; conditions: LN-229, LN229 quad cells, 200 μM to 0.1 uM
Description: as §1, §2, §3

[5] = system: LN229 MGMT+ MMR− cells; experiment: as above; format: cell-based; conditions: LN-229, LN229 quad cells, 200 μM to 0.1 uM
Description: as §1, §2, §3

Structure (SMILES)	change in DNA melting temperature (in words) [1]	activity in MGMT− cells lacking MSH6, MLH1, PMS2, or MSH3 (in words) [2]	IC50 [3] [µM]	IC50 [4] [µM]	IC50 [5] [µM]
NC(=O)c1ncn2c(=O)n(CCF)nnc12 [KL-50, 3-(2-fluoroethyl)-4-oxo-3H,4H-imidazo[4,3-d][1,2,3,5]tetrazine-8-carboxamide]	comparable changes in measured DNA melting temperature	confirmed the activity			
CNC(=O)c1ncn2c(=O)n(CCF)nnc12 [Compound I-1, 3-(2-fluoroethyl)-N-methyl-4-oxo-3H,4H-imidazo[4,3-d][1,2,3,5]tetrazine-8-carboxamide]			< 10	> 80	> 80
